Molecular target: T1, recombinant human FAAH (rhFAAH) (Homo sapiens, UniProt O00519)
T1 construct: purchased Cayman Chemical (Ann Arbor, MI, USA)
T1 sequence (O00519 1-579): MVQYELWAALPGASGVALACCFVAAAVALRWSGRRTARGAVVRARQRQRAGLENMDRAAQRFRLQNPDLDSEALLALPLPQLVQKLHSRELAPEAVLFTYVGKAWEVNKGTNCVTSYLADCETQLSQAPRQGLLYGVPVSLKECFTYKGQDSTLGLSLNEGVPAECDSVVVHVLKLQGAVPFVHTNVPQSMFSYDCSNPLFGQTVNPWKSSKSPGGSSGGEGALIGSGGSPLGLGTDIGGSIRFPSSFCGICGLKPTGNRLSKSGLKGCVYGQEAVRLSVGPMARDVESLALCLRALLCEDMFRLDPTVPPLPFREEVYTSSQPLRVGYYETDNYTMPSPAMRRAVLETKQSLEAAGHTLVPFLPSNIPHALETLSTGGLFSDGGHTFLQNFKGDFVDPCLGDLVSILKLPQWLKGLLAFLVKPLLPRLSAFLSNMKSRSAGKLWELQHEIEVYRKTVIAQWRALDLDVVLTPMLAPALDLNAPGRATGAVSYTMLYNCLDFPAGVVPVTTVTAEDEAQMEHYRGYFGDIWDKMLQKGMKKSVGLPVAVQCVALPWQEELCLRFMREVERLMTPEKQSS
Experiment: FAAH substrate evaluation (acid metabolite formation)
Assay type: biochemical
Settings: 0.5 ng/L rhFAAH, 1 μM test compound, Tris-EDTA buffer pH 8.0, room temperature, 0-60 minutes
Method: Purified recombinant human FAAH (rhFAAH) was purchased from Cayman Chemical (Ann Arbor, MI, USA). The total volume for each incubation was 400 μL containing a final 0.5 ng/L rhFAAH, 1 μM test compound, 1.25% ethanol or 1 μM PF-3845 (FAAH inhibitor), and 0.1% bovine serum albumin in Tris-EDTA buffer at pH 8.0). The positive control was LL-341001. The incubation was conducted at the room temperature. At 0, 5, 15, 30 and 60 minutes, an aliquot of 30 μL reaction mixtures was removed and mixed with 300 μL acetonitrile containing 5 ng/mL terfenadine and 10 ng/mL tolbutamide as internal standards to quench the reaction. The resulting mixture was centrifuged at 4000 rpm, 4° C. for 15 minutes, and 100 μL supernatant was ready for LC-MS/MS analysis to measure the formation of acid metabolite.
Acquity Ultra Performance LC system from Waters was used for sample analysis. The chromatography was performed on a reverse phase Kinetex 2.6 μm C18 column, 2.1×30 mm, 100 Å. The mobile phase A comprised of 0.1% formic acid in water and mobile phase B comprised of 0.1% formic acid in acetonitrile with a 2-min run time at the flow rate of 0.8 mL/min for the acid metabolite from positive control or a 1.5 min run time at the flow rate of 0.9 mL/min for the acid metabolite of test compounds. The mass spectrometer (API-5500 and API Q Trap 4000 Applied Biosystems/MDS SCIEX Instruments, Framingham, MA, USA) was operated under ESI positive or negative ion MRM mode.
The formation of acid metabolite was monitored and quantified using one calibration point of 1 μM. The observed rate constant (ke) for the acid metabolite formation was calculated by plotting the metabolite concentration versus time of incubation with the slope being ke and is shown in Table 2.

| ke (observed rate constant for the acid metabolite formation) | SMILES |
| --- | --- |
| C (ke is less than 0.1 and more than 0) | Cc1noc(-c2ccc(CSCCC(=O)N[C@H]3C[C@H]3F)cc2)c1NC(=O)OC(C)c1ccccc1Cl (stereo partly shown) [Compound 45] |
| C (ke is less than 0.1 and more than 0) | Cc1noc(-c2ccc(CSCCC(=O)NCCCF)cc2)c1NC(=O)O[C@H](C)c1ccccc1Cl [Compound 46] |
| D (ke is 0) | O=C(C[C@H]1CCc2c1[nH]c1ccc(OCc3ccc(C4CCCC4)c(C(F)(F)F)c3)cc21)Nc1ccncc1 [Compound 47] |
| C (ke is less than 0.1 and more than 0) | CCCCC[C@H](O)CC[C@@H]1[C@H]2Cc3cccc(OCC(=O)N[C@H]4C[C@H]4F)c3C[C@H]2C[C@H]1O [Compound 49] |
| A (ke is more than or equal to 1.0) | O=C(Nc1ccnnc1)c1ccc2nc(-c3cc(Cl)cc(Cl)c3)oc2c1 [Compound 50] |
| A (ke is more than or equal to 1.0) | COc1ccc(NC(=O)c2ccc3nc(-c4cc(Cl)cc(Cl)c4)oc3c2)cn1 [Compound 51] |
| A (ke is more than or equal to 1.0) | O=C(Nc1cccnc1)c1ccc2nc(-c3cc(Cl)cc(Cl)c3)oc2c1 [Compound 52] |
| A (ke is more than or equal to 1.0) | CCCCC[C@H](O)CC[C@@H]1[C@H]2Cc3cccc(OCC(=O)Nc4cccnn4)c3C[C@H]2C[C@H]1O [Compound 53] |
| A (ke is more than or equal to 1.0) | CCCCC[C@H](O)CC[C@@H]1[C@H]2Cc3cccc(OCC(=O)Nc4ccncc4)c3C[C@H]2C[C@H]1O [Compound 55] |
| D (ke is 0) | O=C(Nc1ccncc1)c1ccc2nc(-c3cc(Cl)cc(Cl)c3)oc2c1 [Compound 57] |

| SMILES | ke (observed rate constant for the acid metabolite formation) |
| --- | --- |
| O=C(C[C@H]1CCc2c1[nH]c1ccc(OCc3ccc(C4CCCC4)c(C(F)(F)F)c3)cc21)Nc1cccnn1 [Compound 43] | B (ke is less than 1.0 and more than or equal to 0.1) |
| Cc1noc(-c2ccc(CSCCC(=O)Nc3ccncc3)cc2)c1NC(=O)OC(C)c1ccccc1Cl (stereo not shown) [Compound 44] | B (ke is less than 1.0 and more than or equal to 0.1) |
| CCCCC[C@H](O)CC[C@@H]1[C@H]2Cc3cccc(OCC(=O)N[C@H]4C[C@@H]4F)c3C[C@H]2C[C@H]1O [Compound 48] | B (ke is less than 1.0 and more than or equal to 0.1) |

— US20240261414A1, “FATTY ACID AMIDE HYDROLASE (FAAH) CLEAVABLE PRODRUGS OF BRAIN TARGETING ACTIVES AND COMBINATION WITH PERIPHERALLY RESTRICTED FAAH INHIBITORS” (Autobahn Therapeutics, Inc., priority 2021, published 2024)
